Measurements from article PMC11187126, “Structure and dynamics of the pyroglutamylated RF-amide peptide QRFP receptor GPR103” (Nature Communications, 2024).
Like-named read-outs stand apart in the source and are kept apart here. No end group written: not given here.

Molecular target: T1, wild-type GPR103 (Homo sapiens, UniProt Q96P65)
T1 construct: we used human full-length QRFPR-encoding plasmids; expressed in transfected cells; host or cells: HEK293 cells, pCAGGS vector
T1 sequence (Q96P65 1-431): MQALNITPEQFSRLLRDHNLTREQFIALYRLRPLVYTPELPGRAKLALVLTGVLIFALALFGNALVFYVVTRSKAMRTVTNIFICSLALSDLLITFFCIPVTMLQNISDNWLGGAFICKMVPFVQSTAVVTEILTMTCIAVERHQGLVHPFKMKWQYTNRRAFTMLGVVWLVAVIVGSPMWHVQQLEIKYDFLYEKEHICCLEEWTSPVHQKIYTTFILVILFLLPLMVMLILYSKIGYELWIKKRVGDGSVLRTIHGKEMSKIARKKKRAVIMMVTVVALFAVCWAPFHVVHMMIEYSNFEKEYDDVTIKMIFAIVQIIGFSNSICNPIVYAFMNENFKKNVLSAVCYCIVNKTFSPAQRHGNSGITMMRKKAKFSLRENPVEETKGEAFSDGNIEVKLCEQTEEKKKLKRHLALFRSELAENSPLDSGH
Assay: TGFα shedding assay, HEK293 cells; WT titrated to lower expression (1:1 to 1:50)
Format: cell-based
Procedure: For the TGFα shedding assay and the flow cytometry analysis, we used human full-length QRFPR-encoding plasmids. Specifically, GPR103 was N-terminally modified with an HA signal sequence followed by a FLAG epitope and then a flexible linker ([…]; the FLAG epitope is underlined) and inserted into the pCAGGS vector. Plasmid encoding GPR103 mutants were generated using Quickchange Site-Directed Mutagensis kit (Agilent).
The TGFα shedding assay was performed as described previously with minor modifications. Plasmid transfection was performed in a 6-well plate with a mixture of 500 ng (per well in a 6-well plate) AP-TGFα-encoding plasmid and 200 ng GPR103-encoding plasmid. After 1-day culture, the transfected cells were harvested by trypsinization, pelleted by centrifugation at 190 × g for 5 min, and washed once with 5 mM HEPES (pH 7.4)-containing Hank’s Balanced Salt Solution (HBSS). After centrifugation, the cells were resuspended in 8 mL of the HEPES-containing HBSS. The cell suspension was seeded in a 96-well culture plate (cell plate) at a volume of 90 μL (per well hereafter) and incubated in a 37 °C incubator with 5% CO2 for 30 min. […] After spinning the cell plates at 190 × g for 2 min, 80 μL of conditioned media was transferred to an empty 96-well plate (conditioned media (CM) plate). Then, 80 μL of AP reaction solution (10 mM p-nitrophenylphosphate (p-NPP), 120 mM Tris-HCl (pH 9.5), 40 mM NaCl, and 10 mM MgCl2) was dispensed into the cell plates and the CM plates. Absorbance at 405 nm of the plates was measured using a microplate reader (SpectraMax 340 PC384, Molecular Devices) before and after 1-h incubation at room temperature. Ligand-induced AP-TGFα release was calculated by subtracting spontaneous AP-TGFα release signal from ligand-induced AP-TGFα release signal. The AP-TGFα release signals were fitted to a four-parameter sigmoidal concentration–response curve, using the Prism 10 software (GraphPad Prism). For each replicate experiment, the pEC50 parameter (negative logarithmic values of EC50 values) of the individual GPR103 mutants were normalized to that of the wild-type GPR103 performed in parallel, and resulting ∆pEC50 values were used to denote ligand response activity of the mutants. […]
Exp. le vel: WT (1:5 0)Exp. le vel: WT (1:5 0)Exp. le vel: WT (1:5 0)Exp. le vel: WT (1:2 0)Exp. le vel: WT (1:2 0)Exp. le vel: WT (1:1 0) […]
L1 4N - t e r mA F2 5N - t e r mA I 2 6N - t e r mA Y 2 9N - t e r mA C 9 82 .5 7A T10 22 .6 1A Exp . l eve l: WT (1 :5)Exp . l evel : >WT (1 :1)Exp. le vel: WT (1:2 0)Exp. le vel: WT (1:2 0)Exp. le vel: WT (1:5 0)Exp . l eve l: WT (1 :1) […]
Exp. le vel: WT (1:1 0)Exp. le vel: WT (1:2 0) C 1 1 83 .2 5AExp. le vel: WT (1:5 0)Exp. le vel: WT (1:5 0)Exp. le vel: WT (1:2 0)Exp . l eve l: WT (1 :5) […]
Exp. le vel: WT (1:5 0)Exp. le vel: WT (1:1 0)Exp. le vel: WT (1:5 0) E203ECL2AExp . l evel : >WT (1 :1)Exp. le vel: WT (1:5 0)Exp. le vel: WT (1:5 0) […]
Exp . l eve l: WT (1 :1) F28Exp. le vel: WT (1:5 0) C 2 8 56 .4 7AExp. le vel: WT (1:2 0) WExp. le vel: WT (1:2 0) F28Exp. le vel: WT (1:5 0)Exp . l evel : >WT (1 :1) […]
Exp. le vel: WT (1:5 0)Exp. le vel: WT (1:5 0) C 3 2 77 .4 8AExp . l eve l: WT (1 :5)Exp . l evel : >WT (1 :1)Exp . l evel : >WT (1 :1) […]
Suppl eme nt ary Figure 1 | Mutational analysis of GPR103. […]
mutants. Data are presented as mean values ± SEM, normally n=3-5; dots), each performed in triplicate. b-d Cell-surface expression (b) and QRFP26-in-duced activation of GPR103 (c, d) were analyzed by the flow cytometry and the TGFα shedding assay, respectively. From the concentration–response curves (a), Emax (c) and ΔpEC50 (d) values relative to the wild type were calculated. Colors in the mutant bars indicate an expression level matching to that of titrated wild type. Statistical analyses were performed using the ordinary one-way ANOVA followed by Dunnett tests with the expression-matched […]

Substance TSGPLGNLAEELNGYSRKKGGFSFRF-NH2 [QRFP26] has an Emax (HEK293, WT (1:2), mean, read-out: Emax) of 102%, an Emax (HEK293, WT (1:2), n = 5, read-out: Emax) of 102 ± 1.4% and an Emax (HEK293, WT (1:5), mean, read-out: Emax) of 98%. It also gave an Emax (HEK293, WT (1:10), mean, read-out: Emax) of 85.2%, an Emax (HEK293, WT (1:10), n = 5, read-out: Emax) of 86.5 ± 1.5% and an Emax (HEK293, WT (1:20), mean, read-out: Emax) of 68.7%. For the same substance, the Emax (HEK293, WT (1:20), n = 5, read-out: Emax) was 69.6 ± 1.9%, the Emax (HEK293, WT (1:50), mean, read-out: Emax) was 40% and the Emax (HEK293, WT (1:50), n = 3, read-out: Emax) was 38.9 ± 2.7%. It also gave an EC50 (WT (1:1), n = 5) of 5.13 nM, an Emax (WT (1:2), Exp. #1) of 99.44 % WT and an Emax (WT (1:2), Exp. #2) of 98.59 % WT. The Emax (WT (1:2), Exp. #3) was 107.25 % WT, the Emax (WT (1:2), Exp. #4) was 101.53 % WT and the Emax (WT (1:2), Exp. #5) was 103.42 % WT. The EC50 (WT (1:2), n = 5) was 6.61 nM, the Emax (WT (1:5), Exp. #1) was 95.01 % WT and the Emax (WT (1:5), Exp. #2) was 93.02 % WT. The Emax (WT (1:5), Exp. #3) was 103.20 % WT, the Emax (WT (1:5), Exp. #4) was 97.64 % WT and the Emax (WT (1:5), Exp. #5) was 100.97 % WT. The EC50 (WT (1:5), n = 5) was 12.6 nM, the Emax (WT (1:10), Exp. #1) was 87.43 % WT and the Emax (WT (1:10), Exp. #2) was 82.73 % WT. The Emax (WT (1:10), Exp. #3) was 90.71 % WT, the Emax (WT (1:10), Exp. #4) was 84.24 % WT and the Emax (WT (1:10), Exp. #5) was 81.03 % WT. The EC50 (WT (1:10), n = 5) was 15.1 nM, the Emax (WT (1:20), Exp. #1) was 70.65 % WT and the Emax (WT (1:20), Exp. #2) was 70.10 % WT. For the same substance, the Emax (WT (1:20), Exp. #3) was 74.01 % WT, the EC50 (WT (1:20), n = 5) was 21.4 nM and the Emax (WT (1:50), Exp. #3) was 46.11 % WT. The Emax (WT (1:50), Exp. #4) was 34.55 % WT, the Emax (WT (1:50), Exp. #5) was 39.32 % WT and the EC50 (WT (1:50), n = 3) was 53.7 nM.
